According to PMC11271627, “Molecular dynamics-guided optimization of BGM0504 enhances dual-target agonism for combating diabetes and obesity” (Scientific Reports, 2024):

Target: T1, Human GIPR (Homo sapiens, UniProt P48546)
T1 construct: expressed in transfected cells; host or cells: CHO cells
T1 sequence (P48546 22-466): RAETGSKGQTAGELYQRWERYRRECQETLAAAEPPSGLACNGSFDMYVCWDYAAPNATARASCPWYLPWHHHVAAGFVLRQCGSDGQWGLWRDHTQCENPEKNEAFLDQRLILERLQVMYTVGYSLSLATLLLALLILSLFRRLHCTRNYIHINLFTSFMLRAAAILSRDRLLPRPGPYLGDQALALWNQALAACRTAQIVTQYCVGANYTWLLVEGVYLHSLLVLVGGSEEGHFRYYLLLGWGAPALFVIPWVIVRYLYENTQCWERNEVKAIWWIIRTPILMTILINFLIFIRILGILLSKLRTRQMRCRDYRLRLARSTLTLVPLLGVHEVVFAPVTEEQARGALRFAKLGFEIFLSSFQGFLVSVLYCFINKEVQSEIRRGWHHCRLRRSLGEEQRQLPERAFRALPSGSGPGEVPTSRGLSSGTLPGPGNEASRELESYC
Assay: cAMP accumulation assay, GIPR
Format: cell-based
Experimental: These cells were then resuspended in 5 mL of the assay buffer, and their concentration was determined using a Vi-Cell Counter. […] Samples were subsequently added to the assay plate along with ECHO555. […] A volume of 10 µL of the cell suspension was added to the assay plate, with a density of 1000 cells/well for GLP-1R testing and 2000 cells/well for GIPR testing. The assay plate was then incubated in a 23°C incubator for 30 minutes. A starting concentration of 800 nM was used to prepare the cAMP standard curve, followed by a 4-fold 10-point serial dilution. These serially diluted cAMP standards were added to the assay plate at a volume of 10 µL/well. Subsequently, 10 µL of the cAMP detection solution was added to the assay plate, and the plate was incubated at room temperature for 1 hour, shielded from direct light. […] For data analysis, each data point’s cAMP level (nM) was calculated using the established cAMP standard curve. The percentage activity for each data point was determined using the formula: % Activity = (cAMP level of testing sample - average cAMP level of low control) / ([…] cAMP level of high control - average cAMP level of […] control) × 100%. Additionally, the ‘log(agonist) vs. response – variable slope’ model in GraphPad Prism 5.0 was used to fit the dose-response curve of each sample and calculate the EC50 value.

With `CC[C@H](C)[C@H](NC(=O)[C@H](CC(C)C)NC(=O)[C@H](Cc1c[nH]c2ccccc12)NC(=O)[C@H](CCC(N)=O)NC(=O)[C@@H](NC(=O)[C@H](Cc1ccccc1)NC(=O)[C@H](C)NC(=O)[C@H](CCCCN)NC(=O)[C@H](CCC(N)=O)NC(=O)[C@H](C)NC(=O)[C@@H](NC(=O)[C@H](CCCCN)NC(=O)[C@H](CC(=O)O)NC(=O)[C@H](CC(C)C)NC(=O)C(C)(C)NC(=O)[C@@H](NC(=O)[C@H](CO)NC(=O)[C@H](Cc1ccc(O)cc1)NC(=O)[C@H](CC(=O)O)NC(=O)[C@H](CO)NC(=O)[C@@H](NC(=O)[C@H](Cc1ccccc1)NC(=O)[C@@H](NC(=O)CNC(=O)[C@H](CCC(=O)O)NC(=O)C(C)(C)NC(=O)[C@@H](N)Cc1ccc(O)cc1)[C@@H](C)O)[C@@H](C)O)[C@@H](C)CC)[C@@H](C)CC)C(C)C)C(=O)N[C@@H](C)C(=O)NCC(=O)NCC(=O)N1CCC[C@H]1C(=O)N[C@@H](CO)C(=O)N[C@@H](CO)C(=O)NCC(=O)N[C@@H](C)C(=O)N1CCC[C@H]1C(=O)N1CCC[C@H]1C(=O)N1CCC[C@H]1C(=O)N[C@@H](CO)C(=O)N[C@@H](CCCCNC(=O)COCCOCCOCCNC(=O)COCCOCCOCCNC(=O)CC[C@H](NC(=O)CCCCCCCCCCCCCCCCCCC(=O)O)C(=O)O)C(N)=O` [BGM0504] the EC50 was 0.182 nM and the Emax (CHO) was 106 ± 7.9%.
